Source: US20090074676A1, “Inhibition of p38 MAPK For Treatment Of Obesity” (SMITHKLINE BEECHAM CORPORATION, priority 2005, published 2009)
Entries after “also recorded” stand apart in the source; their conditions may differ.

How the values were obtained:
[1] = tested on: 3T3-L1 adipocytes; details: by reducing GLUT4 activity; cited from earlier work
[2] = tested on: DIO AKR mice; assay: Experiment 2: two week treatment of 24-25 weeks old male DIO AKR mice on high fat diet; type: in vivo; details: 10 & 30 mg/kg, PO, BID
Method: Compound 2 was administered for a two week treatment in 24-25 weeks old male DIO AKR mice (older). Methods: Male AKR mice, from Jackson Laboratories, group housed, 24-25 weeks old, on high fat diet (HFD, D12331 rodent diet, 58 kcal % from fat and sucrose. Research Diets, Inc., New Brunswick, N.J.) started at 4-5 weeks old. A parallel group of mice on normal diet (ND, Purina 5001) was served as diet control. During the last 2 weeks of diet period, mice on HFD were treated with vehicle (0.5% tragacanth in 0.03N HCl), Compound 2 administered at 10, and 30 mg/kg, BID, PO (10 ml/kg). Mice on ND were treated with vehicle. Mouse number in each group was 7-10. Body weight (BW), body composition, postprandial blood glucose, and fasting serum insulin were measured.

[3] = tested on: DIO C57BL/6 mice; assay: Experiment 3: four weeks treatment of male DIO C57BL/6 mice on high fat diet (body weight, body composition, glucose); type: in vivo; details: PO, BID, 4 weeks
Method: Methods: Male C57BL/6 mice, from Jackson Laboratories, group housed, 18-19 weeks old, on high fat diet (HFD, D12331 rodent diet, 58 kcal % from fat and sucrose. Research Diets, Inc., New Brunswick, N.J.) started at 4-5 weeks old. A parallel group of mice on normal diet (ND, Purina 5001) was served as diet control. During the last 4 weeks of diet period, mice on HFD were treated with vehicle (0.5% tragacanth in 0.03N HCl), Compound 2 administered at 3, 10, and 30 mg/kg, BID, PO (10 ml/kg). Mice on ND were treated with vehicle. Mouse number in each group was 8-10. Body weight (BW), body composition, fasting blood glucose, postprandial blood glucose and insulin were measured. […] Epididymal fat pad was collected to determine PPARγ and GLUT4 gene expression.

[4] = tested on: diet-induced obese (DIO) AKR mice; assay: Experiment 1: four weeks treatment of 18-19 weeks old male DIO AKR mice on high fat diet (body weight, body composition, glucose, ITT); type: in vivo
Method: Compound 2 was administered for four weeks treatment in 18-19 weeks old male, diet-induced obese (DIO) AKR mice. Methods: Male AKR mice, from Jackson Laboratories, group housed, 18-19 weeks old, on high fat diet (HFD, D12331 rodent diet, 58 kcal % from fat and sucrose. Research Diets, Inc., New Brunswick, N.J.) started at 4-5 weeks old. A parallel group of mice on normal diet (ND, Purina 5001) was served as diet control. During the last 4 weeks of diet period, mice on HFD were treated with vehicle (0.5% tragacanth in 0.03N HCl), Compound 2 was administered at 3 mg/kg, and 10 mg/kg, and water (control for vehicle), twice daily (BID), orally (PO) at 10 ml/kg. Mice on normal diet (ND) were treated with vehicle. Mouse number in each group was 7-10. Body weight (BW) was monitored once a week. Body composition was monitored every other week by using EchoMRI™ Whole Body Composition Analyzer (Echo Medical Systems, Houston, Tex.). Fasting blood glucose was measured at 2 weeks of treatment. Postprandial blood glucose was measured at before and end of treatment. Fasting serum insulin was measured at dosing 2 weeks via orbital bleeding. Serum IL-6 was measured at the end of treatment under fasting condition. Insulin tolerance test (ITT) was also performed at end of the diet period.

Structure (SMILES) | insulin-induced glucose uptake [1] | blood glucose ([2]; 2 weeks) | reduction in body weight (BW) ([2]; last 2 weeks of 20 weeks on HFD, p<0.05) | time at which the effect on BW and fat mass appeared ([2]; more pronounced over the 2 weeks) | blood glucose [3] | lean mass [3] | blood glucose ([4]; 3 & 10 mg/kg, PO, BID, 4 weeks) | lean mass ([4]; 3 & 10 mg/kg, PO, BID, 4 weeks) | reduction in body weight (BW) ([4]; 3 & 10 mg/kg, PO, BID, last 4 weeks of 14 weeks on HFD, p<0.05) | response to an insulin tolerance test (ITT) ([4]; end of diet period, insulin i.p. 0.75 U/kg)
C[S+]([O-])c1ccc(-c2nc(-c3ccc(F)cc3)c(-c3ccncc3)[nH]2)cc1 (stereo not shown) [Compound 1, 4-(4-Fluorophenyl)-2-(4-methylsulfinylphenyl)-5-(4-pyridyl)imidazole] | reduced insulin-induced glucose uptake | – | – | – | – | – | – | – | – | –
COc1nccc(-c2c(-c3ccc(F)cc3)ncn2[C@H]2CC[C@H](O)CC2)n1 [Compound 2, trans-1-(4-hydroxycyclohexyl)-4-(4-fluorophenyl)-5-[(2-methoxy)pyrimidin-4-yl]imidazole] | – | no effect; also recorded: did not have any significant effect | 4-9% | 4 days | no effect; also recorded: did not have any significant effect | no effect | no effect; also recorded: did not have any significant effect | no effect | 4-9% | did not have any significant effect
